Measured values taken from paper PMC8344243, “Design, synthesis, docking, ADMET studies, and anticancer evaluation of new 3-methylquinoxaline derivatives as VEGFR-2 inhibitors and apoptosis inducers” (Journal of Enzyme Inhibition and Medicinal Chemistry, 2021).
Several values for one entry are separate records, joined by “and”; a condition that tells them apart may be missing. Equal values may be shown once.

What was measured:
[1] = test system: MCF-7; assay: MTT anti-proliferative assay, MCF-7; assay type: cell-based; settings: for IC50: Homo sapiens, MCF7, MCF-7, MTT assay, read-out: Cytotoxicity on cancer cells IC50, MCF-7
Protocol: (§1) In vitro cytotoxic activities of the synthesised compounds were evaluated against two different cancer cell lines; breast cancer (MCF-7) and hepatocellular carcinoma (HepG2) using standard MTT colorimetric assay as described by Mosmann[78]^,[79]. […].
(§2) The in vitro antiproliferative activities were assessed using the MTT assay protocol[78]^,[79]^,[95]. As shown in Supplementary Data.

[2] = test system: HepG2; assay: MTT anti-proliferative assay, HepG2; assay type: cell-based; settings: Homo sapiens, read-out: Cytotoxicity on cancer cells IC50, HepG2
Protocol: as §1, §2

[3] = target: T1, human VEGFR-2 (Homo sapiens, UniProt P35968); assay: In vitro VEGFR-2 enzyme inhibition assay (ELISA kit, HepG2 cell line); assay type: biochemical; settings: human VEGFR-2 in HepG2 cell line
T1 construct: endogenous in cells; host or cells: HepG2
Excerpt: The synthesised compounds were estimated for their in vitro inhibition on human VEGFR-2 in HepG2 cell line; using ELISA kit[96] as described in Supplementary Data.

[4] = Cytotoxicity against primary rat hepatocytes (normal hepatic cells); assay type: cell-based; settings: rat, primary rat hepatocytes
Excerpt: (§3) It is of high importance for anticancer agents to have minimum side effects on normal cells. […].

[5] = test system: primary rat hepatocytes; assay: as above; assay type: cell-based; settings: HepG2 vs primary rat hepatocytes
Excerpt: as §3

[6] = test system: HepG2 cells; assay: Flow cytometry cell cycle analysis; assay type: cell-based; settings: 4.5 µM, 24 h
Protocol: The cell cycle parameters of the incubated cells were compared with untreated control cells (Table 2 and Figure 4).

[7] = test system: HepG2 cells; assay: Annexin V and PI double staining apoptosis assay; assay type: cell-based; settings: 4.5 µM, 24 h
Protocol: As compound 27a produced a high accumulation of HepG2 cells at the G2/M phase, such compound was further investigated for its apoptotic effect using Annexin V and PI double staining assay. In such a procedure, HepG2 cells were treated with compound 27a at a concentration of 4.5 µM and incubated for 24 h.
Apoptosis analysis for compound 27a in HepG2 cells was carried out using Annexin V-FITC as shown in Supplementary Data[30]^,[86].

[8] = test system: caspase-3; assay: Active caspase-3 level in HepG2 cells (Western blot); assay type: cell-based; settings: 4.5 µM, 24 h
[9] = test system: caspase-9; assay: Active caspase-9 level in HepG2 cells (Western blot); assay type: cell-based; settings: 4.5 µM, 24 h
[10] = test system: BAX; assay: BAX expression level in HepG2 cells (Western blot); assay type: cell-based
Protocol: (§4) In this study, BAX and Bcl-2 expression levels in the HepG2 cell line after the treatment with compound 27a were determined by quantitative Western blotting. […] Also, it decreased the Bcl-2 level by 2-fold less than the control cells. In addition, the BAX/Bcl-2 ratio was increased 5-fold in the treated cells compared to the control cell (Table 4 and Figure 6). Meanwhile, compound 27a increased BAX/Bcl-2 ratio, it could trigger apoptosis in the experienced cells[90]^,[91].

[11] = test system: Bcl-2; assay: Bcl-2 expression level in HepG2 cells (Western blot); assay type: cell-based
Protocol: as §4

[12] = test system: BAX/Bcl-2 ratio; assay: BAX/Bcl-2 ratio in HepG2 cells (Western blot); assay type: cell-based
Protocol: as §4

T1 sequence (P35968 20-1356): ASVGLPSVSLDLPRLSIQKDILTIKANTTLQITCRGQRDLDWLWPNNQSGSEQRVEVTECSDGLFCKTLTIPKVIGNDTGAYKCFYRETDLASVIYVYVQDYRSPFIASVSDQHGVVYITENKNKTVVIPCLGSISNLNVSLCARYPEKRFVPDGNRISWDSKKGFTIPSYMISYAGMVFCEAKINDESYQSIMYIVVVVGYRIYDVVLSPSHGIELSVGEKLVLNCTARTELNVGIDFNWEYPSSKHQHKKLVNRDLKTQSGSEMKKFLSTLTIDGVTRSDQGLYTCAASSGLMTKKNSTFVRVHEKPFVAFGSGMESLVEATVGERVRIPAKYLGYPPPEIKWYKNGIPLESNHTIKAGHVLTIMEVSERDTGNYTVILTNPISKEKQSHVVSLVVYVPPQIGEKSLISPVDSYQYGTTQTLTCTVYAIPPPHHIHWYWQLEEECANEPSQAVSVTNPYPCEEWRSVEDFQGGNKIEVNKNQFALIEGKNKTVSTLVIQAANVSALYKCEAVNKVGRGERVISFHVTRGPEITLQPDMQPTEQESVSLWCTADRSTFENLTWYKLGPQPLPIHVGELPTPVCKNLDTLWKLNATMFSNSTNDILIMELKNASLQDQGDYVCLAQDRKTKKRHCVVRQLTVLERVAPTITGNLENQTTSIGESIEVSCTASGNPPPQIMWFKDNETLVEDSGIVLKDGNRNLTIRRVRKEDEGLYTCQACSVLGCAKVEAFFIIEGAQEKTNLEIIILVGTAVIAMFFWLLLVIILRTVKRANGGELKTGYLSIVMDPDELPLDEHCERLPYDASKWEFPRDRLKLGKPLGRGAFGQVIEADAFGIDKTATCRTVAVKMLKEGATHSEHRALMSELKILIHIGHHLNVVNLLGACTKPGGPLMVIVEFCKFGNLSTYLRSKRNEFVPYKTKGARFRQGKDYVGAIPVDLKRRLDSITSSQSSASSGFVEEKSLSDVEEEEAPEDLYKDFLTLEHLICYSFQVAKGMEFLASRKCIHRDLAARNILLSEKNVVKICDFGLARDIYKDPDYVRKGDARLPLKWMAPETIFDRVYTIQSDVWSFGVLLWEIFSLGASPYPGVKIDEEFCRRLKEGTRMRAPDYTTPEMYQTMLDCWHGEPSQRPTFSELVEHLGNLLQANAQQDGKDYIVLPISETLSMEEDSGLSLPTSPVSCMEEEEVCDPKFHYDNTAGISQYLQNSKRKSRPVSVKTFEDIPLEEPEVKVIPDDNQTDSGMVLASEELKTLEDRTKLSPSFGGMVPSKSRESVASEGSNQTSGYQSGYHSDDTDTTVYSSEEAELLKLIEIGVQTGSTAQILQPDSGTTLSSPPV

Molecule Cc1nc2ccccc2n(CC(=O)Nc2ccc(C(=O)NC(C)(C)C)cc2)c1=O [Compound 27a, N-(tert-butyl)-4-(2-(3-methyl-2-oxoquinoxalin-1(2H)-yl)acetamido)benzamide] has an IC50 [1] of 7.7 µM, an IC50 [2] of 4.5 µM and an IC50 [3] of 0.0032 µM. The IC50 [4] was 19.9 µM, the “Cytotoxic activity against cancer HepG2 cell line more than against normal hepatic cells” value [5] was 4.5 fold and the “Accumulation of cells at G2/M compared to control cells” value [6] was 3.5 fold. For the same molecule, the “Cell cycle distribution %G1” value [6] was 37.66% and 37.66 ± 2.16 %, the “Cell cycle distribution %G2/M” value [6] was 34.14% and 34.14 ± 1.22 % and the “Cell cycle distribution %S” value [6] was 26.96% and 26.96 ± 1.55%. The “Cell cycle distribution %Sub-G1” value [6] was 1.24% and 1.24 ± 0.17%, the “Apoptosis, Early (right bottom)” value [7] was 40.47% and 40.47 ± 2.55 % and the “Apoptosis, Late (right top)” value [7] was 0.35% and 0.35 ± 0.06%. The “Increase of apoptosis compared to untreated cells” value [7] was “about five times”, the “Necrosis (left top)” value [7] was 0.20 ± 0.04 and the “Viable (left bottom)” value [7] was 58.98 ± 2.64. For the same molecule, the “Increase in the level of caspase-3 compared to control cells” value [8] was 2.5 fold, the “Protein expression (normalised to β-actin), Caspases-3” value ([8]; control = 1.00) was 2.51 ± 0.27 and the “Increase in the level of caspase-9 compared to control cells” value [9] was 3.43 fold. For the same molecule, the “Protein expression (normalised to β-actin), Caspases-9” value ([9]; control = 1.00) was 3.43 ± 0.49, the “Increase in the BAX level compared to control cells” value [10] was 2.6 fold and the “Protein expression (normalised to β-actin), BAX” value ([10]; 24 h, control = 1.00) was 2.60 ± 0.20. For the same molecule, the “Decrease in the Bcl-2 level compared to control cells” value [11] was 2 fold, the “Protein expression (normalised to β-actin), Bcl-2” value ([11]; 24 h, control = 1.00) was 0.52 ± 0.02 and the “Increase of BAX/Bcl-2 ratio compared to control cells” value [12] was 5 fold. The “Protein expression (normalised to β-actin), BAX/Bcl-2 ratio” value ([12]; 24 h, control = 1.00) was 5.03 ± 0.36.
With Cc1nc2ccccc2n(CC(=O)Nc2ccc(C(=O)NCCc3ccccc3)cc2)c1=O [Compound 27b, 4-(2-(3-Methyl-2-oxoquinoxalin-1(2H)-yl)acetamido)-N-phenethylbenzamide] the IC50 [1] was 62.3 µM, the “Activity against the MCF-7 cell line (in words)” value (“Activity … (in words)” below) [1] was “inactive” and the IC50 [2] was 41.5 µM. It also gave an IC50 [3] of 0.0225 µM and a melting point of 283 to 285 °C.
With COc1cccc(OC)c1NC(=O)c1ccc(NC(=O)Cn2c(=O)c(C)nc3ccccc32)cc1 [Compound 27c, N-(2,6-Dimethoxyphenyl)-4-(2-(3-methyl-2-oxoquinoxalin-1(2H)-yl)acetamido)-benzamide] the IC50 [1] was 57.2 µM, the “Activity … (in words)” value [1] was “inactive” and the IC50 [2] was 42.6 µM. For the same molecule, the IC50 [3] was 0.0116 µM and the melting point was > 300 °C.
Work on Cc1cccc(C)c1NC(=O)c1ccc(NC(=O)Cn2c(=O)c(C)nc3ccccc32)cc1 [Compound 27d, N-(2,6-Dimethylphenyl)-4-(2-(3-methyl-2-oxoquinoxalin-1(2H)-yl)acetamido)-benzamide] yielded an IC50 [1] of 30.7 µM, an IC50 [2] of 24.1 µM and an IC50 [3] of 0.0218 µM. The melting point was 240 to 242 °C.
Cc1nc2ccccc2n(CC(=O)Nc2ccc(C(=O)Nc3ccc([N+](=O)[O-])cc3)cc2)c1=O [Compound 27e, 4-(2-(3-Methyl-2-oxoquinoxalin-1(2H)-yl)acetamido)-N-(4-nitrophenyl)benzamide] gave an IC50 [1] of 42.3 µM, an IC50 [2] of 27.5 µM and an IC50 [3] of 0.0217 µM. For the same molecule, the melting point was > 300 °C.
Cc1nc2ccccc2n(CC(=O)Nc2ccc(C(=O)Nc3ccc(Cl)cn3)cc2)c1=O [Compound 27f, N-(5-Chloropyridin-2-yl)-4-(2-(3-methyl-2-oxoquinoxalin-1(2H)-yl)acetamido)-benzamide] gave an IC50 [1] of 22.7 µM, an IC50 [2] of 19.7 µM and an IC50 [3] of 0.0107 µM. The melting point was > 300 °C.
With Cc1nc2ccccc2n(CC(=O)Nc2ccc(C(=O)NNC(=O)c3ccc([N+](=O)[O-])cc3)cc2)c1=O [Compound 28, 2-(3-Methyl-2-oxoquinoxalin-1(2H)-yl)-N-(4-(2-(4-nitrobenzoyl)hydrazine-1-carbonyl)phenyl)acetamide] the IC50 [1] was 17.2 µM, the IC50 [2] was 11.7 µM and the IC50 [3] was 0.0042 µM.
Cc1nc2ccccc2n(CC(=O)Nc2ccc(C(=O)NNc3ccccc3)cc2)c1=O [Compound 29, 2-(3-Methyl-2-oxoquinoxalin-1(2H)-yl)-N-(4-(2-phenylhydrazine-1-carbonyl)phenyl) acetamide] showed an IC50 [1] of 23.5 µM, an IC50 [2] of 17.5 µM and an IC50 [3] of 0.0098 µM.
For Cc1nc2ccccc2nc1SCC(=O)Nc1ccc(C(=O)NC(C)(C)C)cc1 [Compound 30a, N-(tert-Butyl)-4-(2-((3-methylquinoxalin-2-yl)thio)acetamido)benzamide], the IC50 [1] was 61.9 µM, the “Activity … (in words)” value [1] was “inactive” and the IC50 [2] was 43.7 µM. For the same molecule, the IC50 [3] was 0.0298 µM and the melting point was 231 to 233 °C.
Cc1nc2ccccc2nc1SCC(=O)Nc1ccc(C(=O)NC2CCCCC2)cc1 [Compound 30b, N-Cyclohexyl-4-(2-((3-methylquinoxalin-2-yl)thio)acetamido)benzamide] gave an IC50 [1] of 43.8 µM, an IC50 [2] of 34.2 µM and an IC50 [3] of 0.0087 µM.
